Results reported in patent publication US20210330611A1, “THERAPY FOR NEUROLOGICAL DISEASES/DISORDERS” (priority 2020, published 2021).
“And” between values parts separate entries of the source, which are not always exact repeats. Equal entries are not always repeated. Structures can show the parent of a compound that is named as a salt. Where two headings read alike, the source gives them in different places.

Columns and labels:
[1] = system: LPS-induced microglia activation; experiment: Image-based assay of LPS-induced microglia activation (HTS and dose response); format: cell-based, rat; settings: Rattus norvegicus, Microglia; for inhibition at 10 µM: primary microglia HTS, LPS stimulation, increased cell size (>800 μm^2) as marker of activation, read-out: LPS % inhibition
[2] = system: fibrin-induced microglia activation; experiment: Image-based assay of fibrin-induced microglia activation (HTS and dose response); format: cell-based, rat; settings: for IC50 / inhibition at 10 µM: Rattus norvegicus, Microglia; for inhibition at 10 µM: primary microglia HTS, fibrin stimulation, increased cell size (>800 μm^2) as marker of activation, read-out: Fibrin % inhibition
[3] = system: fibrin- and LPS-induced microglia activation; experiment: cells; format: cell-based, rat; settings: for inhibition at 10 µM: Rattus norvegicus
[4] = in vitro; settings: rat, Cell Toxicity IC50 (uM) [cFib assay]
[5] = system: primary rat microglia; experiment: Cell toxicity (dead cells, size <150 μm2) in coated fibrin (cFib) assay; settings: primary microglia HTS, fibrin stimulation; decreased size (<150 μm^2) as marker of toxicity;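 as to Fibrin % cell toxicity: share of dead cells sized under 150 µm2 at 10 µM in fibrin-stimulated microglia HTS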
[6] = system: primary rat microglia; experiment: Cell toxicity (dead cells, size <150 μm2) in LPS assay; settings: for LPS % cell toxicity: primary microglia HTS, LPS stimulation, decreased size (<150 μm^2) as marker of toxicity; for IC50: read-out: Cell Toxicity IC50 (uM) [LPS assay], LPS assay
[7] = in vitro; settings: rat
[8] = 48 h, Table 1, dose response 0.001-20 μM, triplicates, primary rat microglia, 48 h, read-out: LPS IC50
[9] = LPS-induced microglia activation, dose response, read-out: LPS IC50 (uM) (Suppl. Table 7)
[10] = Table 3, read-out: LPS IC50 (uM) (Suppl. Table 7)
[11] = dose response, LPS-induced microglia activation, read-out: LPS IC50
[12] = 48 h, Table 1, dose response 0.001-20 μM, triplicates, primary rat microglia, 48 h, read-out: Fibrin IC50
[13] = Table 3, read-out: Fibrin IC50 (uM) (Suppl. Table 7)
[14] = dose response, fibrin-induced microglia activation, read-out: Fibrin IC50
[15] = fibrin-induced microglia activation, dose response, read-out: Fibrin IC50 (uM) (Suppl. Table 7)
[16] = HTS of 1907 compounds, quadrant by fibrin and LPS inhibition
[17] = Microglia, Table 3, read-out: Cherry-picked Hit (Suppl. Table 7)
[18] = Microglia, HTS hit classification, read-out: Hit
[19] = quadrant by fibrin and LPS inhibition in HTS of 1907 compounds
[20] = Table 6, read-out: LPS IC50 (uM) (Suppl. Table 7)
[21] = Table 6, read-out: Fibrin IC50 (uM) (Suppl. Table 7)
[22] = listed as Medroxyprogesterone Ac
[23] = hit classification in microglia HTS, read-out: Cherry-picked Hit (Suppl. Table 7)

Row | Structure (SMILES) | IC50 [1, 8] [µM] | inhibition at 10 µM ([1]; 48 h) [%] | IC50 [1, 9] [µM] | IC50 [1, 10] [µM] | IC50 [1, 11] [µM] | IC50 [2, 12] [µM] | IC50 [2, 13] [µM] | IC50 [2, 14] [µM] | IC50 [2, 15] [µM] | inhibition at 10 µM [2] [%] | Quadrant (FIG. 5b) [3, 16] | inhibition at 10 µM [3, 17] [%] | inhibition at 10 µM [3, 18] [%] | Quadrant (FIG. 5b) ([3]; Table 1, screen at 10 μM) | Quadrant (FIG. 5b) ([3]; Table 3, screen at 10 μM) | Quadrant (FIG. 5b) [3, 19] | IC50 ([4]; cFib assay) [µM] | Fibrin % cell toxicity [5] [%] | LPS % cell toxicity [6] [%] | IC50 [7] [µM] | further results
1 | Cc1cc(NC(=O)C2=C(O)c3ccccc3S(=O)(=O)N2C)no1 [Isoxicam, reference compound] | > 20 | 30 | > 20 | > 20 | > 20 | 7 | 7 | 7 | 7 | 67 | Q3 | > 50 | > 50 | Q3 | Q3 | Q3 | > 20 | 1 | 1 | > 20 | Fibrin Selectivity [2]: 3; Fibrin Selectivity (LOG10) [2]: 0.43; IC50 ([4]; Table 3): > 20 µM; IC50 [6]: > 20 µM
2 | C[C@H](N)[C@H](O)c1ccc(O)c(O)c1 [Levonordefrin, reference compound] | > 20 | 36 | > 20 | > 20 | > 20 | 0.9 | 0.9 | 0.9 | 0.9 | 70 | Q3 | > 50 | > 50 | Q3 | Q3 | Q3 | > 20 | 1 | 0 | > 20 | Fibrin Selectivity [2]: 21; Fibrin Selectivity (LOG10) [2]: 1.33; IC50 ([4]; Table 3): > 20 µM; IC50 [6]: > 20 µM
3 | CC(=O)O[C@]1(C(C)=O)CC[C@H]2[C@@H]3C[C@H](C)C4=CC(=O)CC[C@]4(C)[C@H]3CC[C@@]21C [Medroxyprogesterone acetate, reference compound] | > 20 | 56 | > 20 | > 20 | > 20 | 0.3 | 0.3 | 0.5 | 0.3 | 72 | Q2 | > 50 | > 50 | Q2 | Q2 | Q2 | > 20 | 1 | 1 | > 20 | IC50 [1, 20]: > 20 µM; IC50 [2, 21]: 0.3 µM; Fibrin Selectivity (LOG10) ([2]; fibrin vs LPS, LOG10, Table 6): 1.84 and 1.61; Fibrin Selectivity ([2]; fibrin vs LPS, Table 6): 70 and 41; Fibrin Selectivity [2, 22]: 70 and 41; Fibrin Selectivity (LOG10) [2, 22]: 1.84 and 1.61; Fibrin Selectivity ([2]; listed as Medroxyprogesterone Acetate): 70 and 41; Quadrant (FIG. 5b) ([3]; microglia HTS, Table 6): Q2; IC50 ([4]; Table 3): > 20 µM; IC50 ([4]; cFib assay, Table 6): > 20 µM; IC50 [6]: > 20 µM; IC50 ([6]; Table 6): > 20 µM
4 | C=C1C[C@H]2[C@@H]3C=C(C)C4=CC(=O)CC[C@]4(C)[C@H]3CC[C@]2(C)[C@@]1(OC(C)=O)C(C)=O [Melengestrol acetate, reference compound] | 13 | 67 | 13 | 13 | 13 | 0.07 | 0.07 | 0.07 | 0.07 | 86 | Q2 | > 50 | > 50 | Q2 | Q2 | Q2 | > 20 | 2 | 2 | > 20 | IC50 [1, 20]: 13 µM; Fibrin Selectivity [2]: 196; Fibrin Selectivity (LOG10) [2]: 2.29; IC50 [2, 21]: 0.07 µM; Fibrin Selectivity (LOG10) ([2]; fibrin vs LPS, LOG10, Table 6): 2.29; Fibrin Selectivity ([2]; fibrin vs LPS, Table 6): 196; Quadrant (FIG. 5b) ([3]; microglia HTS, Table 6): Q2; IC50 ([4]; Table 3): > 20 µM; IC50 ([4]; cFib assay, Table 6): > 20 µM; IC50 [6]: > 20 µM; IC50 ([6]; Table 6): > 20 µM
5 | CNC(C)(C)Cc1ccccc1 [Mephentermine sulfate, reference compound] | > 20 | 31 | > 20 |  | > 20 | > 20 |  | > 20 | > 20 | 60 | Q3 |  | > 50 | Q3 |  | Q3 | > 20 | 2 | 1 | > 20 | inhibition at 10 µM [3, 23]: > 50%
6 | C=N[C@@H](C(=O)N[C@@H]1C(=O)N2[C@@H]1SC(C)(C)[C@@H]2C(=O)O)c1ccccc1 [Metampicillin sodium, reference compound] | > 20 | 35 | > 20 |  | > 20 | 20 |  | 20 | 20 | 68 | Q3 |  | > 50 | Q3 |  | Q3 | > 20 | 1 | 0 | > 20 | inhibition at 10 µM [3, 23]: > 50%
7 | CN1CCN2c3ncccc3Cc3ccccc3C2C1 (stereo not drawn) [Mirtazapine, reference compound] | > 20 | 36 | > 20 |  | > 20 | > 20 |  | > 20 | > 20 | 57 | Q3 |  | > 50 | Q3 |  | Q3 | > 20 | 2 | 1 | > 20 | inhibition at 10 µM [3, 23]: > 50%
